# Test results from US5191079A, “Quinolinecarboxylic acid derivatives” (priority 1990, dated 1993).
# Read-outs that look alike come from different tables or passages of the source.
# What was measured:
# [1] = tested on: Staphylococcus epidermidis IAM 1296; test: MIC, Experiment 1; assay type: cell-based; conditions: IAM1296, S. epidermidis IAM 1296, Gram +, read-out: Min. inhib. concentr. (MIC)
# Protocol: The compounds of the present invention ([…] and Q) were each dissolved in dimethylsulfoxide to prepare a solution of 5000 μg/ml in concentration. The compounds of the present invention (I, J and K) and the known compound (Y) were each dissolved in sterilized distilled water to prepare a solution of 5000 μg/ml in concentration. […] The test was carried out by a method as appointed by Japan Society of Chemotherapy [cf. Chemotherapy, 29, 76-79 (1981), TOKYO]. As to Streptococcus pneumoniae and Streptococcus pyogenes, Brain heart infusion broth (manufactured by DIFCO) was used as the medium for the preculture thereof, and a heart infusion agar medium containing 5% defibrinated horse blood (manufactured by Nissui Seiyaku K. K., Japan) was used as the medium for the measurement of minimum inhibitory concentration (MIC). As to other microorganisms, a sensitivity test broth (manufactured by Nissui Seiyaku K. K.) was used as the medium for the preculture thereof, and a sensitivity test agar medium (manufactured by Nissui Seiyaku K. K.) was used as the medium for the measurement of MIC.
# [2] = tested on: clinically isolated Staphylococcus aureus; test: In vitro antibacterial activity against clinical isolates, Experiment 2; assay type: cell-based; conditions: for MIC50: 50% of strains, read-out: MIC50
# Procedure, shortened: (§1)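 MIC was determined on sensitivity test agar after preculture of each clinical isolate in sensitivity test broth. Test compounds were prepared as 1000 μg/ml standard (stock) solutions in sterilized distilled water. Isolates were collected between Nov. 1988 and Jun. 1989.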
# [3] = tested on: clinically isolated Staphylococcus epidermidis; test: as above; assay type: cell-based; conditions: Staphylococcus epidermidis; for MIC90: 90% of strains, read-out: MIC90
# Procedure, shortened: as §1
# [4] = tested on: Staphylococcus aureus IID 803; test: Effect on treatment of general infectious disease (systemic infection in mice), Experiment 3; assay type: in vivo, Staphylococcus aureus; ddY male mice; conditions: for protective effects against infection: Experiment 3, in words; for ED50: Staphylococcus aureus, IID803, 168 h, oral, 1 h after i.p. infection, mice, survival after one week, average of several tests, read-out: 50% effective dose (ED50)
# Protocol: (§2) Staphylococcus aureus IID 803
# (§3) The test microorganism was subjected to standing culture in Brain heart infusion broth (manufactured by DIFCO) at 37° C. for 16 to 18 hours. The culture was then diluted with PBS (Dulbecco's phosphate buffered saline) to adjust the concentration of bacteria to 4×10^7 -8×10^7 CFU/ml. The mixture was mixed with an equivalent amount of 10% (w/v) Mucin (BACTO MUCIN BACTERIOLOGICAL, manufactured by Difco Co.) to prepare a bacterial suspension. The thus prepared bacterial suspension (0.5 ml each) was intraperitoneally inoculated to ddY male mice (5 weeks age, weighing 24-27 g, 5 mice in each group), to infect the animals, by which systemic infectious model was prepared.
# The mice were daily observed for one week, and from the survival number of mice after one week, the 50% effective dose (ED50) was calculated by Weil method. This test was repeated several times and the average of ED50 was calculated.
# [5] = Acute toxicity, Experiment 5; assay type: in vivo; conditions: oral, 2000 mg/kg, one week
# Protocol: The compound (A) or (B) of the present invention was suspended in distilled water to prepare a suspension in concentration of 200 mg/ml and the compound (C) was suspended in distilled water to prepare a suspension in concentration of 100 mg/ml. The suspension was orally administered to ddY male mice (5 weeks age, weighing 19 to 24 g, 5 mice in each group), which had been fasted for 18 hours, at a rate of 2000 mg/kg body weight of the test compound.
# bone marrow [6] = test: Micronucleus test, Experiment 8; assay type: in vivo, ICR male mice; conditions: oral 300, 1000, 3000 mg/kg, mouse bone marrow, 24 or 48 hours
# Protocol: The compound (B) or (E) of the present invention was suspended in 1% aqueous gum arabic. The suspension was orally administered to ICR male mice (7-8 weeks age, weighing 30 to 39 g, 5 mice in each group) at a rate of 3000, 1000 or 300 mg/kg body weight of the test compound (B) or (E). After 24 hours or 48 hours, these mice were killed and the bone marrow was collected and observed the presence of micronuclei.
# bone marrow [7] = test: Micronucleus test, Experiment 7; assay type: in vivo, ICR male mice; conditions: oral 100 to 3000 mg/kg, mouse bone marrow, 24 hours
# Protocol: 9,1-(Methylimino)methano-7-fluoro-8-(2-fluoromethylmorpholino)-5-oxo-5H-thiazolo[3,2-a]quinoline-4-carboxylic acid (compound of Example 3) [the compound (C) of the present invention] was suspended in sterilized distilled water. The suspension was orally administered to ICR male mice (8 weeks age, weighing 30 to 36 g, 3 mice in each group) at a rate of 3000, 1000, 300 or 100 mg/kg body weight of the test compound (C). After 24 hours, these mice were killed and the bone marrow was collected and observed the presence of micronuclei.
# [8] = tested on: Staphylococcus aureus IID 803; test: Effect on treatment of general infectious disease (systemic infection in mice), Experiment 4; assay type: in vivo, Staphylococcus aureus; ddY male mice
# Protocol: as §2
# as §3, with “to 3×10^7” for “to 4×10^7 -8×10^7”, “weighing 22-29” for “weighing 24-27”, “g, 10” for “g, 5”, “prepared. One hour after the infection, a suspension of the test compound in 1% (w/v) aqueous gum arabic was orally adiministered to mice.” for “prepared.”
# The mice were daily observed for one week, and from the survival number of mice after one week, the 50% effective dose (ED50) was calculated by Weil method.
# [9] = Acute toxicity, Experiment 6; assay type: in vivo, F344/DuCrj male and female rats; conditions: oral, 1000 and 2000 mg/kg, one week
# Protocol: 9,1-(Methylimino)methano-7-fluoro-8-(2-methoxymethylmorpholino)-5-oxo-5H-thiazolo[3,2-a]quinoline-4-carboxylic acid (compound of Example 20) [the compound (E) of the present invention] was suspended in 1% aqueous gum arabic to prepare a suspension in concentration of 100 mg/ml. The suspension was orally administered to F344/DuCrj male and female rats (5 weeks age, weighing 110 to 115 g in male, 91 to 95 g in female, 3 rats in each group), which had been fasted for 5 hours, at a rate of 1000 and 2000 mg/kg body weight of the test compound (E).
# [10] = 25 clinical strains S. aureus incl. 16 methicillin resistant
# [11] = 25 clinical strains S. aureus incl. 16 methicillin resistant, 90% of strains, read-out: MIC90
# [12] = 25 clinical strains S. epidermidis
# [13] = 25 clinical strains S. epidermidis, 50% of strains, read-out: MIC50
Compound,MIC [1],"MIC [2, 10]","MIC50 [2, 10]","MIC90 [2, 11]","MIC [3, 12]","MIC50 [3, 13]","MIC90 [3, 12]",protective effects against infection [4],ED50 [4],death of mice [5],MIC90 [2],MIC50 [3],micronucleus inducing activity (bone marrow [6]),micronucleus inducing activity (bone marrow [7]),"protective effects against infection ([8]; Experiment 4, in words)","ED50 ([8]; Staphylococcus aureus, IID803, 168 h, oral, 1 h after i.p. infection, mice, survival after one week, 3×10^7 CFU/ml, read-out: 50% effective dose (ED50))",death of rats [9]
"CC1CN(c2c(F)cc3c(=O)c(C(=O)O)c4scc5n4c3c2N(C)C5)CCO1 (stereo not shown) [Compound (A), 9,1-(Methylimino)methano-7-fluoro-8-(2-methylmorpholino)-5-oxo-5H-thiazolo[3,2-a]quinoline-4-carboxylic acid]",0.05 µg/mL,0.006 to 0.2 µg/mL,≤ 0.006 µg/mL,0.2 µg/mL,0.006 to 0.39 µg/mL,0.013 µg/mL,0.2 µg/mL,excellent protective effects against infection,3.5 mg/kg,no death of mice was observed,–,–,–,–,–,–,–
"CN1Cc2csc3c(C(=O)O)c(=O)c4cc(F)c(N5CCOC(CO)C5)c1c4n23 (stereo not shown) [Compound (B), 9,1-(Methylimino)methano-7-fluoro-8-(2-hydroxymethylmorpholino)-5-oxo-5H-thiazolo[3,2-a]quinoline-4-carboxylic acid]",0.05 µg/mL,0.006 to 0.78 µg/mL,0.013 µg/mL,–,0.006 to 0.78 µg/mL,–,0.39 µg/mL,excellent protective effects against infection,5.1 mg/kg,no death of mice was observed,0.78 µg/mL,0.025 µg/mL,no nucleus inducing activity,–,–,–,–
"CN1Cc2csc3c(C(=O)O)c(=O)c4cc(F)c(N5CCOC(CF)C5)c1c4n23 (stereo not shown) [Compound (C), 9,1-(Methylimino)methano-7-fluoro-8-(2-fluoromethylmorpholino)-5-oxo-5H-thiazolo[3,2-a]quinoline-4-carboxylic acid]",0.025 µg/mL,0.006 to 0.2 µg/mL,0.013 µg/mL,0.2 µg/mL,0.006 to 0.39 µg/mL,0.013 µg/mL,0.39 µg/mL,excellent protective effects against infection,1.9 mg/kg,no death of mice was observed,–,–,–,no nucleus inducing activity,–,–,–
"COCC1CN(c2c(F)cc3c(=O)c(C(=O)O)c4scc5n4c3c2N(C)C5)CCO1 (stereo not shown) [Compound (E), 9,1-(Methylimino)methano-7-fluoro-8-(2-methoxymethylmorpholino)-5-oxo-5H-thiazolo[3,2-a]quinoline-4-carboxylic acid]",0.05 µg/mL,0.006 to 0.78 µg/mL,0.013 µg/mL,–,0.006 to 0.39 µg/mL,0.05 µg/mL,0.39 µg/mL,–,–,–,0.78 µg/mL,–,no nucleus inducing activity,–,excellent protective effects against infection,1.7 mg/kg,no death of rats was observed
